Measured values as given in US8247437B2, “N-hydroxyamide derivatives and use thereof” (Merck Serono SA, priority 2004, dated 2012).
Read-outs that look alike come from different tables or passages of the source.

Columns and labels:
[1] = system: IL-2-induced peritoneal recruitment of lymphocytes; assay: IL-2-induced peritoneal recruitment of lymphocytes; assay type: in vivo, C3H/HEN mice; conditions: mice, 15 min prior to IL-2, cells collected 24 h after IL-2
Method: Administration of IL-2 intraperitoneally causes migration of lymphocytes into the intraperitoneal cavity. This is a model for the cellular migration that occurs during inflammation.
C3H/HEN mice (Elevage Janvier, France) were intraperitoneally injected with IL-2 (Serono Pharmaceutical Research Institute, 20 μg/kg, in saline).
Compounds of the invention were suspended in 0.5% carboxymethylcellulose (CMC)/0.25% tween-20 and were administered by s.c. or p.o. route (10 ml/kg) 15 min prior to administration of IL-2.
Twenty-four hours after administration of IL-2, peritoneal white blood cells were collected by 3 successive lavages of the peritoneal cavity with 5 ml phosphate buffered saline (PBS)-1 mM EDTA (+4° C.). The suspension was centrifuged (1700 g×10 min at +4° C.). The resulting pellet was suspended in 1 ml PBS-1 mM EDTA.
Lymphocytes were identified and counted using a Beckman/Coulter counter.
The animals were divided into 6 groups (6 mice each group):
Group 1: (baseline) received 0.5% CMC/0.25% tween-20 (vehicle of compound of the invention) and saline (vehicle of IL-2);
Group 2: (control IL-2) received 0.5% CMC/0.25% tween-20 and injection of IL-2;
Group 3: Experimental group (Compound of the invention Dose 1) received a compound of the invention and injection of IL-2;
Group 4: Experimental group (Compound of the invention Dose 2) received a compound of the invention and injection of IL-2;
Group 5: Experimental group (Compound of the invention Dose 3) received a compound of the invention and injection of IL-2;
Group 6: Reference group received reference compound dexamethasone and injection of IL-2.
Inhibition of lymphocyte recruitment was calculated as follows:
Where Ly 1=Number of lymphocytes in group 1 (E3/μl), Ly 2=Number of lymphocytes in group 2 (E3/μl), Ly X=Number of lymphocytes in group X (3-5) (E3/μl).

[2] = molecular target: T1, collagenase (MMP-1) (Homo sapiens, UniProt P03956); assay: MMP-1 enzyme inhibition assay (coumarin-labelled peptide substrate McaPLGLDpaAR); assay type: biochemical
T1 sequence (P03956 100-469): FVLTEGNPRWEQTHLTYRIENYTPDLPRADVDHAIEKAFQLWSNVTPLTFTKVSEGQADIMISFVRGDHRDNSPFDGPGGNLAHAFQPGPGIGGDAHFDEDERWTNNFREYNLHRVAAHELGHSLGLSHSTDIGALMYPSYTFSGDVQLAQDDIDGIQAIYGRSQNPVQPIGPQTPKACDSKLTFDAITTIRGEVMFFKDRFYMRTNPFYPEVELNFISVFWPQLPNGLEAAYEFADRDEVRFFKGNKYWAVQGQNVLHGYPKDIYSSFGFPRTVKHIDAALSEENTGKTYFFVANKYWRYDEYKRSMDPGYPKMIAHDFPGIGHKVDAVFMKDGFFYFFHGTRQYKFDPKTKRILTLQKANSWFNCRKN
Method: (§1) Stock solutions were made up as follows: Assay Butter: 100 mM Tris-HCl pH 7.6 is containing 100 mM NaCl, 10 mM CaCl2, and 0.05% Brij 35.
(§2) Substrate: 0.4 mM McaPLGLDpaAR (from Bachem) (0.437 mg/ml) stock solution in 100% DMSO (stored at −20° C.). Dilute to 8 μM in assay butter.
(§3) Enzyme: Recombinant human 92 kDa gelatinase (MMP-9; APMA (4-aminophenyl mercuric acetate)-activated if necessary) appropriately diluted in assay butter.
(§4) Test Compounds were prepared initially as 10 mM compound solution in 100% DMSO, diluted to 1 mM in 100% DMSO, then serially diluted 3-fold in 100% DMSO across columns 1-10 of a 96-well microtitre plate Assay concentration range, 100 μM (column 1) to 5.1 nM (column 10).
(§5) The assay was performed in a total volume of 100 μL per well in 96-well microfilm plates. Activated enzyme (20 μL) was added to the wells followed by 20 μL of assay butter. Appropriate concentrations of test compounds dissolved in 10 μL of DMSO were then added followed by 50 μL of McaPLGLDpaAR (8 μM, prepared by dilution of DMSO stock in assay butter). For each as say ten concentrations of test compound were examined in duplicate. Control wells lack either enzyme or test compound. The reactions were incubated at 37° C. for 2 hours. The fluorescence at 405 nm was measured immediately with an SLT Fluostar fluorometer (SL T Labinstruments GmbH, Grödig, Austria) using 320 nm excitation, without stopping the reaction.
(§6) The effect of the test compound was determined from the dose response curve generated by the 10 duplicate concentrations of inhibitor. The IC50 (the concentration of compound required to give a 50% decrease in enzyme activity) was obtained by fitting data to the equation, Y=a+((b−a)/(1+(c/X)^d)). (Y=inhibition achieved for a particular dose; X=the dose in nM; a=minimum y or zero % inhibition; b=maximum y or 100% inhibition; c=is the IC50; d=is the slope). The result was rounded to one significant figure.
(§7) Compounds of the invention were tested for inhibitory activity against collagenase (MMP-1) in an assay using a coumarin-labelled peptide substrate, (7-methoxycoumarin-4-yl)acetyl-Pro-Leu-Gly-Leu-(3-[2,4-dinitrophenyl]-L-2,3diaminopropionyl)-Ala-Arg-NH2 (Mca PLGLDpaAR) (Knight et al, 1992, above). The protocol for this assay was as described for the MMP-9 assay above.

[3] = molecular target: 92 kDa gelatinase (MMP-9) (Homo sapiens, UniProt P14780); assay: MMP-9 enzyme inhibition assay (coumarin-labeled peptide substrate McaPLGLDpaAR); assay type: biochemical
Chain of 92 kDa gelatinase (MMP-9) (P14780 107-707 limits assumed): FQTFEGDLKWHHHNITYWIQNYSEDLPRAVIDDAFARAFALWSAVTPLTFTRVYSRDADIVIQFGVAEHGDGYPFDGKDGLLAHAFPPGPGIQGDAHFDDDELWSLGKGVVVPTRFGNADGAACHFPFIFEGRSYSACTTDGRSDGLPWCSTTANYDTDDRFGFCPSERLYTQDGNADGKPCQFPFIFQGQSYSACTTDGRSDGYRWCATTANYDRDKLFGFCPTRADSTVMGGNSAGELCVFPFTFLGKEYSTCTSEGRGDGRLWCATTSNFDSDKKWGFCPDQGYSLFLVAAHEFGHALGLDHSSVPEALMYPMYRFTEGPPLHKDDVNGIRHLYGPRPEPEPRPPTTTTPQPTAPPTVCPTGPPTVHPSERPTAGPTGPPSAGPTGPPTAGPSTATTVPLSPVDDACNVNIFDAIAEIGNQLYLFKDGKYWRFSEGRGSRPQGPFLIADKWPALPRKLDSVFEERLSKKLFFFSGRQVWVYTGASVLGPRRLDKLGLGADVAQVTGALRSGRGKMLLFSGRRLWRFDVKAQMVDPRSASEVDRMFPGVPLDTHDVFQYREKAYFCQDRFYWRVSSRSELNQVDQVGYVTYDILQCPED
Method: Compounds of the invention were tested for inhibitory activity against 92 kDa gelatinase (MMP-9) in an assay using a coumarin-labeled peptide substrate, (7-methoxycoumarin-4-yl)acetyl-Pro-Leu-Gly-Leu-(3-[2,4-dinitrophenyl]-L-2,3diaminopropionyl)-Ala-Arg-NH2 (McaPLGLDpaAR) (Knight et al, FEBS Lett. 1992; 263-266).
as §1, §2, §3, §4, §5, §6

[4] = molecular target: metalloelastase (MMP-12) (Homo sapiens, UniProt P39900); assay: MMP-12 enzyme inhibition assay (coumarin-labelled peptide substrate McaPLGLDpaAR); assay type: biochemical
Chain of metalloelastase (MMP-12) (P39900 106-470): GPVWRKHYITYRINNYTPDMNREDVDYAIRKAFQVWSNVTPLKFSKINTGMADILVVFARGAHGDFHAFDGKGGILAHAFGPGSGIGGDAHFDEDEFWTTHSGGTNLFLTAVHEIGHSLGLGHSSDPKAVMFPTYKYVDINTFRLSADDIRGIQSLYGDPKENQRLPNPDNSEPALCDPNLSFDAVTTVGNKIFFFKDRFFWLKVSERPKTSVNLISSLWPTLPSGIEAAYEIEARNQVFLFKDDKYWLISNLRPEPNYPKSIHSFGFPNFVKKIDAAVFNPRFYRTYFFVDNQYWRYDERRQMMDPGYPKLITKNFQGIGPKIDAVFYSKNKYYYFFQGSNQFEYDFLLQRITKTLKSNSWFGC
Method: as §1, §2, §3, §4, §5, §6
Compounds of the invention were tested for inhibitory activity against metalloelastase (MMP-12) in an assay using a coumarin-labelled peptide substrate, (7-methoxycoumarin-4-yl)acetyl-Pro-Leu-Gly-Leu-(3-[2,4-dinitrophenyl]-L-2,3-diaminopropionyl)-Ala-Arg-NH2 (McaPLGLDpaAR) (Knight et al, 1992, above). The protocol for this assay was as described for the MMP-9 assay above.

[5] = molecular target: T2, gelatinase A (MMP-2) (Homo sapiens, UniProt P08253); assay: MMP-2 enzyme inhibition assay (coumarin-labelled peptide substrate McaPLGLDpaAR); assay type: biochemical
T2 sequence (P08253 110-660): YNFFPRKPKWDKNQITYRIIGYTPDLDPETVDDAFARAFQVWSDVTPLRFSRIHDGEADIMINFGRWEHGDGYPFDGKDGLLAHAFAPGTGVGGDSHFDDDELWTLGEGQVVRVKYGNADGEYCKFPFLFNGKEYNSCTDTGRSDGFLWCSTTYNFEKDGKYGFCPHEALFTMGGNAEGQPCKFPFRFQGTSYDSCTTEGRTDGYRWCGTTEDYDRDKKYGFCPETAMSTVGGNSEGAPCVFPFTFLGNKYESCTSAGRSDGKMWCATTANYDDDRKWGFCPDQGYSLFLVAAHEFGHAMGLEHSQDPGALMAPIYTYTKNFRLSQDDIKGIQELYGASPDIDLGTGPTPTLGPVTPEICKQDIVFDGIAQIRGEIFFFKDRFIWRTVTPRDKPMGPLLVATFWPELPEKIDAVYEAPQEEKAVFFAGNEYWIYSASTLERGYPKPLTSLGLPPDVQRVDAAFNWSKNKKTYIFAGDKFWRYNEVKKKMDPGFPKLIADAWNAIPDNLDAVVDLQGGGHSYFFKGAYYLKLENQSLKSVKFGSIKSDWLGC
Method: as §1, §2, §3, §4, §5, §6
as §7, with “gelatinase A (MMP-2)” for “collagenase (MMP-1)”

[6] = dose 1 mg/kg po, Table 4, Formula (VI)
[7] = Table 1, compounds of Formula (I), read-out: MMP-1 IC50
[8] = Table 1, compounds of Formula (I), read-out: MMP-9 IC50
[9] = Table 1, compounds of Formula (I), read-out: MMP-12 IC50
[10] = Table 1, compounds of Formula (I), read-out: MMP-2 IC50
[11] = dose 1 mg/kg po, Table 3, Formula (I)

CCOc1ccc(CCC[C@@H](C(=O)N2C[C@@H]3C[C@H]2CN3c2ccc(F)cc2)[C@H](O)C(=O)NO)cc1 [Example 47, (2S,3R)-6-(4-ethoxyphenyl)-3-{[(1S,4S)-5-(4-fluorophenyl)-2,5-diazabicyclo[2.2.1]hept-2-yl]carbonyl}-N,2-dihydroxyhexanamide]
% inhibition of IL-2-induced peritoneal recruitment of lymphocytes [1, 6]: 41%

CC(C)C[C@H](C(=O)N1CCN(c2ccc(-c3ccccc3)cc2)C[C@H]1C)[C@H](O)C(=O)NO [Example 53, (2S,3S)-3-{[(2R)-4-biphenyl-4-yl-2-methylpiperazin-1-yl]carbonyl}-N,2-dihydroxy-5-methylhexanamide]
IC50 [2, 7]: > 5000 nM
IC50 [3, 8]: 7 nM
IC50 [4, 9]: 5 nM
IC50 [5, 10]: 7.5 nM
% inhibition of IL-2-induced peritoneal recruitment of lymphocytes [1, 11]: 61%

CC(C)C[C@H](C(=O)N1CC=C(c2ccccc2)CC1)[C@@H](O)C(=O)NO [Example 61, (2R,3S)-N,2-dihydroxy-5-methyl-3-[(4-phenyl-3,6-dihydropyridin-1(2H)-yl)carbonyl]hexanamide]
IC50 [2, 7]: > 5000 nM
IC50 [3, 8]: 48 nM
IC50 [4, 9]: 2 nM
IC50 [5, 10]: 8 nM
% inhibition of IL-2-induced peritoneal recruitment of lymphocytes [1, 11]: 67%

CCOc1ccc(CCC[C@@H](C(=O)N2CCC(Nc3ccccc3)CC2)[C@H](O)C(=O)NO)cc1 [Example 20, (2S,3R)-3-[(4-anilinopiperidin-1-yl)carbonyl]-6(4-ethoxyphenyl)-N,2-dihydroxyhexanamide]
IC50 [2]: > 5000 nM
IC50 [3]: 37 nM
IC50 [4]: 29 nM
IC50 [5]: 82 nM
% inhibition of IL-2-induced peritoneal recruitment of lymphocytes [1, 6]: 38%

CCOc1ccc(CCCC(C(=O)N2CCN(c3ccccn3)C[C@H]2C)[C@H](O)C(=O)NO)cc1 (mixture of isomers) [Example 6, (2S,3S)-6-(4-ethoxyphenyl)-N,2-dihydroxy-3-{[(2R)-2-methyl-4-pyridin-2-ylpiperazin-1-yl]-carbonyl}hexanamide]
IC50 [2, 7]: > 5000 nM
IC50 [3, 8]: 22 nM
IC50 [4, 9]: 20 nM
IC50 [5, 10]: 8 nM
% inhibition of IL-2-induced peritoneal recruitment of lymphocytes [1, 11]: 46%
% inhibition of IL-2-induced peritoneal recruitment of lymphocytes ([1]; dose 3 mg/kg po, Table 3, Formula (I)): 65%

CCOc1ccc(CCC[C@H](C(=O)N2CCN(c3ccccn3)C[C@@H]2C)[C@H](O)C(=O)NO)cc1 [Example 7, (2S,3S)-6-(4-ethoxyphenyl)-N,2-dihydroxy-3-{[(2S)-2-methyl-4-(2-pyridinyl)piperazinyl]carbonyl}hexanamide]
% inhibition of IL-2-induced peritoneal recruitment of lymphocytes [1, 11]: 46%

CCOc1ccc(CCC[C@@H](C(=O)N2CCN(CCN3CCOCC3)CC2)[C@H](O)C(=O)NO)cc1 [Example 37, (2S,3R)-6-(4-ethoxyphenyl)-N,2-dihydroxy-3-{[4-(2-morpholin-4-ylethyl)piperazin-1-yl]-carbonyl}hexanamide]
IC50 ([2]; Table 2, compounds of Formula (VI), read-out: MMP-1 IC50): > 5000 nM
IC50 ([3]; Table 2, compounds of Formula (VI), read-out: MMP-9 IC50): 52 nM
IC50 ([4]; Table 2, compounds of Formula (VI), read-out: MMP-12 IC50): 23 nM
IC50 ([5]; Table 2, compounds of Formula (VI), read-out: MMP-2 IC50): 65 nM
% inhibition of IL-2-induced peritoneal recruitment of lymphocytes [1, 6]: 42%

CC(C)C[C@H](C(=O)N1CCN(c2ccccn2)C[C@H]1C)[C@H](O)C(=O)NO (single isomer, unassigned) [Example 4]
IC50 [2, 7]: 301 nM
IC50 [3, 8]: 12 nM
IC50 [4, 9]: 17 nM
IC50 [5, 10]: 4 nM
% inhibition of IL-2-induced peritoneal recruitment of lymphocytes [1, 11]: 39%
